Reference: PubChem BioAssay (NCI)
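Exposure lasted 48 hours, with cells grown in 96-well plates and compounds tested at five concentrations. Abbreviation: GI50, concentration required for 50% inhibition of growth. At the TGI there is no net growth.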

Key:
Test in all cases: DTP human tumour cell line panel, 48 h
[1] = tested on: BT-549 breast
[2] = tested on: HOP-62 NSCLC
[3] = tested on: HL-60(TB) leukemia
[4] = tested on: HCT-116 colon
[5] = tested on: NCI-H460 lung
[6] = tested on: MALME-3M melanoma
[7] = tested on: EKVX NSCLC
[8] = tested on: OVCAR-3 ovarian
[9] = tested on: SN12C renal
[10] = tested on: MCF7 breast
[11] = tested on: UACC-62 melanoma
[12] = tested on: DU-145 prostate
[13] = tested on: NCI-H23 lung
[14] = tested on: HOP-92 NSCLC
[15] = tested on: UACC-257 melanoma
[16] = tested on: M14 melanoma
[17] = tested on: SK-MEL-2 melanoma
[18] = tested on: RPMI-8226 leukemia
[19] = tested on: 786-0 renal
[20] = tested on: CAKI-1 renal
[21] = tested on: CCRF-CEM leukemia
[22] = tested on: A549 NSCLC
[23] = tested on: SR leukemia
[24] = tested on: SW-620 colon
[25] = tested on: OVCAR-4 ovarian
[26] = tested on: MDA-MB-231 breast
[27] = tested on: KM12 colon
[28] = tested on: NCI-H226 lung
[29] = tested on: HCT-15 colon
[30] = tested on: SF-295 CNS
[31] = tested on: ACHN renal
[32] = tested on: HS 578T breast
[33] = tested on: SK-MEL-28 melanoma
[34] = tested on: SF-268 CNS
[35] = tested on: SK-OV-3 ovarian
[36] = tested on: UO-31 renal
[37] = tested on: COLO 205 colon
[38] = tested on: SF-539 CNS
[39] = tested on: A498 renal
[40] = tested on: K-562 leukemia
[41] = tested on: TK-10 renal
[42] = tested on: T-47D breast
[43] = tested on: SNB-75 CNS
[44] = tested on: HT29 colon
[45] = tested on: IGROV1 ovarian
[46] = tested on: MOLT-4 leukemia
[47] = tested on: HCC-2998 colon
[48] = tested on: U251 CNS
[49] = tested on: PC-3 prostate
[50] = tested on: NCI/ADR-RES ovarian
[51] = tested on: LOX IMVI melanoma
[52] = tested on: SNB-19 CNS
[53] = tested on: NCI-H522 lung
[54] = tested on: OVCAR-5 ovarian
[55] = tested on: MDA-MB-435
[56] = tested on: OVCAR-8 ovarian
[57] = tested on: SK-MEL-5 melanoma
[58] = tested on: RXF 393 renal

## CN(C)C(=O)O[C@@H]1CN[C@@H](C#Cc2cc3ncnc(Nc4ccc(OCc5cccc(F)c5)c(Cl)c4)c3s2)C1
[1]
  GI50: 7.93 µM
  TGI: > 21.4 µM
[2]
  GI50: > 25 µM
  TGI: > 25 µM
[3]
  GI50: 9.86 µM
  TGI: > 22 µM
[4]
  GI50: > 25 µM
  TGI: > 25 µM
[5]
  GI50: 8.33 µM
  TGI: > 25 µM
[6]
  GI50: 9.41 µM
  TGI: > 25 µM
[7]
  GI50: 5.14 µM
  TGI: > 23.2 µM
[8]
  GI50: 7.51 µM
  TGI: > 25 µM
[9]
  GI50: 8.01 µM
  TGI: > 25 µM
[10]
  GI50: > 25 µM
  TGI: > 25 µM
[11]
  GI50: > 25 µM
  TGI: > 25 µM
[12]
  GI50: > 25 µM
  TGI: > 25 µM
[13]
  GI50: > 25 µM
  TGI: > 25 µM
[14]
  GI50: 6.5 µM
  TGI: > 25 µM
[15]
  GI50: > 25 µM
  TGI: > 25 µM
[16]
  GI50: > 25 µM
  TGI: > 25 µM
[17]
  GI50: > 25 µM
  TGI: > 25 µM
[18]
  GI50: 7.18 µM
  TGI: > 25 µM
[19]
  GI50: 9.48 µM
  TGI: > 21.7 µM
[20]
  GI50: 5.87 µM
  TGI: > 25 µM
[21]
  GI50: 2.78 µM
  TGI: > 25 µM
[22]
  GI50: 7.82 µM
  TGI: > 25 µM
[23]
  GI50: 20.1 µM
  TGI: > 25 µM
[24]
  GI50: > 25 µM
  TGI: > 25 µM
[25]
  GI50: > 25 µM
  TGI: > 25 µM
[26]
  GI50: 6.6 µM
  TGI: > 20 µM
[27]
  GI50: 9.85 µM
  TGI: > 25 µM
[28]
  GI50: 9.22 µM
  TGI: > 18.4 µM
[29]
  GI50: > 25 µM
  TGI: > 25 µM
[30]
  GI50: > 25 µM
  TGI: > 25 µM
[31]
  GI50: 18.9 µM
  TGI: > 25 µM
[32]
  GI50: > 25 µM
  TGI: > 25 µM
[33]
  GI50: > 25 µM
  TGI: > 25 µM
[34]
  GI50: 14.5 µM
  TGI: > 25 µM
[35]
  GI50: 0.406 µM
  TGI: > 25 µM
[36]
  GI50: 5.22 µM
  TGI: > 20.9 µM
[37]
  GI50: > 25 µM
  TGI: > 25 µM
[38]
  GI50: 8.58 µM
  TGI: > 25 µM
[39]
  GI50: 5.65 µM
  TGI: > 19.7 µM
[40]
  GI50: > 25 µM
  TGI: > 25 µM
[41]
  GI50: 4.7 µM
  TGI: > 25 µM
[42]
  GI50: 11.2 µM
  TGI: > 25 µM
[43]
  GI50: > 19.4 µM
  TGI: > 25 µM
[44]
  GI50: > 25 µM
  TGI: > 25 µM
[45]
  GI50: 13.1 µM
  TGI: > 25 µM
[46]
  GI50: 6.73 µM
  TGI: > 21.8 µM
[47]
  GI50: 14.1 µM
  TGI: > 25 µM
[48]
  GI50: > 21.2 µM
  TGI: > 25 µM
[49]
  GI50: 8.53 µM
  TGI: > 25 µM
[50]
  GI50: > 25 µM
  TGI: > 25 µM
[51]
  GI50: > 25 µM
  TGI: > 25 µM
[52]
  GI50: > 25 µM
  TGI: > 25 µM
[53]
  GI50: 2.14 µM
  TGI: > 10.5 µM
[54]
  GI50: > 25 µM
  TGI: > 25 µM
[55]
  GI50: > 25 µM
  TGI: > 25 µM
[56]
  GI50: 18.7 µM
  TGI: > 25 µM
[57]
  GI50: > 25 µM
  TGI: > 25 µM
[58]
  GI50: > 20.4 µM
  TGI: > 25 µM
